From patent US6166205A, “2-Aryl-4-(1-[4-heteroaryl]piperazin-1-yl)methylimidazoles: dopamine . D.sub4 receptor subtype ligands” (Neurogen Corporation, priority 1999, dated 2000)
Counter-ions that a name gives are not always drawn.

Tests used:
D2 receptor = D2 receptor (Chlorocebus aethiops, UniProt P52702); assay: dopamine D2 receptor binding assay (3H-YM 09151-2); design: species or system African Green monkey; settings: 0.5 nM 3H-YM 09151-2; COS cells with recombinantly produced D2 receptors; Table 2: rat striatal homogenates
Method: (§1) Assays For D2 And D4 Receptor Binding Activity
(§2) Pellets of COS cells containing recombinantly produced D2 or D4 receptors from African Green monkey are used for the assays. A sample is homogenized in 100 volumes (w/vol) of 0.05 M Tris HCl buffer at 4° C. and pH 7.4 and then centrifuged at 30,000×g and resuspended and rehomogenized. The sample is again centrifuged at 30,000×g and the final tissue sample is frozen until use. The tissue is resuspended 1:20 (wt/vol) in 0.05 M Tris HCl buffer containing 100 mM NaCl.
(§3) Incubations are carried out at […] and contain 0.4 ml of tissue sample, 0.5 nM ^3 H-YM 09151-2(Nemonapride, cis-5-Chloro-2-methoxy-4-(methylamino)-N-(2-methyl-2-(phenylmethyl)-3-pyrrolidinyl)benzamide) and the compound of interest in a total incubation of 1.0 ml. Nonspecific binding is defined as that binding found in the presence of […] spiperone; without further additions, nonspecific binding is less than 20% of total binding. The binding characteristics of representative compounds of this invention for the D2 and D4 receptor subtypes are shown in Table 2 for rat striatal homogenates.

D4 receptor = assay: dopamine D4 receptor binding assay (3H-YM 09151-2); design: species or system African Green monkey; settings: 0.5 nM 3H-YM 09151-2; COS cells with recombinantly produced D4 receptors; Table 2: rat striatal homogenates
Method: as §1, §2, §3

Sequence of D2 receptor (P52702 whole entry): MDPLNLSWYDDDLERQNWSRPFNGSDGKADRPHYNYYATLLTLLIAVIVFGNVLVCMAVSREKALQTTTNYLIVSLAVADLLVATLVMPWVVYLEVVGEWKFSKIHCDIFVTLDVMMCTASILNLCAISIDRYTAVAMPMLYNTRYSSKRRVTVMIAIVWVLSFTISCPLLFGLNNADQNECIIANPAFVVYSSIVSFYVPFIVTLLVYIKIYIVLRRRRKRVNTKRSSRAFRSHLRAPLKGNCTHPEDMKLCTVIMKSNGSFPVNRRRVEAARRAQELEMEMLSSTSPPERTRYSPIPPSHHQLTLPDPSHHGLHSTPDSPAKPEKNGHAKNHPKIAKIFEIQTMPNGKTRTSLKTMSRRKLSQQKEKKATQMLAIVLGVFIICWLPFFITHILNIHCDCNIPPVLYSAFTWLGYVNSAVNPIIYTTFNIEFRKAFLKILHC

Work on `c1ccc(-c2ncc(CN3CCN(c4ccc5ccccc5n4)CC3)[nH]2)cc1` [Compound 2a, 1-[(2-phenylimidazol-5-yl)methyl]-4-(2-quinolyl)piperazine hydrobromide] yielded a Ki (D2 receptor) of 784 nM and a Ki (D4 receptor) of 9 nM.
`c1ccc(-c2ncc(CN3CCN(c4cnc5ccccc5n4)CC3)[nH]2)cc1` [Compound 5, 2-{4-[(2-phenylimidazol-5-yl)methyl]piperazinyl}quinoxaline] was tested, and the Ki (D2 receptor) was 2050 nM.
Molecule `Fc1ccccc1-c1ncc(CN2CCN(c3ccc4ccccc4n3)CC2)[nH]1` [Compound 3a, 1-{[2-(2-fluorophenyl)imidazol-5-yl]methyl}-4-(2-quinolyl)piperazine oxalate] has a Ki (D2 receptor) of 978 nM and a Ki (D4 receptor) of 17 nM.
In the case of `c1ccc(-c2ncc(CN3CCN(c4ccc5c(n4)CCCC5)CC3)[nH]2)cc1` [Compound 1a, (1-[(2-phenylimidazol-5-yl)methyl]-4-(2-5,6,7,8-tetrahydroquinolyl)piperazine hydrobromide], the Ki (D2 receptor) is reported as > 1000 nM and the Ki (D4 receptor) is reported as 14 nM.
For `c1ccc(-c2ncc(CN3CCN(c4ncc5ccccc5n4)CC3)[nH]2)cc1` [Compound 4a, 2-{4-[(2-phenylimidazol-5-yl)methyl]piperazinyl}quinazoline], the Ki (D2 receptor) was 2680 nM.
